In patent US8771975B2, “Quantitation of GCP activity in biological samples” (The Johns Hopkins University, priority 2011, dated 2014):
Where two headings read alike, the source gives them in different places.

Experiments:
[1] = 2-PMPA level in paw pads by LC-MS/MS; assay type: in vivo, rat; settings: 100 mg/kg i.p., 1 hour after administration, n=9, LC-MS/MS
Description: The presence of 2-PMPA in skin was determined. Animals were given 2-PMPA (100 mg/kg, i.p.), sacrificed 1 hour after compound administration and paw pads isolated for direct determination of 2-PMPA levels by LC-MS/MS. Since 2-PMPA detection by mass spectrometry has low sensitivity due to ion suppression, samples from animals that had received 100 mg/kg 2-PMPA rather than 10 mg/kg were analyzed to increase the probability of detecting 2-PMPA.
Briefly, frozen samples were thawed in a water bath at ambient temperature and subjected to a liquid extraction using MeOH. Samples were placed in brown glass vials containing 500 μL of 100% MeOH. […] The sample was transferred to a 250 μL polypropylene auto sampler vial sealed with a Teflon crimp cap, and a volume of 50 μL was injected onto the HPLC instrument for quantitative analysis using a temperature-controlled auto sampling device operating at 10° C.
Chromatographic analysis was performed using a Waters ACQUITY UPLC (Milford, Mass., USA). […] The column effluent was monitored using an AB SCIEX TRIPLE QUAD 5500 triple-quadrupole mass-spectrometric detector (Applied Biosystems, Foster City, Calif., USA). […] The daughter ions for 2-PMPA (m/z 191.1) and the internal standard (m/z 255.1) were monitored through the third quadrupole (Q3). […]

GCP [2] = target: T1, GCP (Rattus norvegicus, UniProt P70627); assay type: in vivo; settings: 1 hour after administration
T1 construct: Reconstituted pellet preparations from rat paw pads were used as source of GCP II; from tissue; host or cells: male Wistar rat paw pad skin (plantar hindpaw), 16000xg pellet; animals dosed i.p. with 2-PMPA
Description: A determination of GCP activity was carried out using male Wistar rat paw pads. Skin was collected from the planter hindpaw by 3 mm skin biopsy dissection and sonicated for 2 minutes in ice. The mixture was centrifuged for 2 minutes at 16000×g and the resulting pellet was reconstituted similar to the pellets obtained from the human skin dissections. Reconstituted pellet preparations from rat paw pads were used as source of GCP II and incubated with [^3H] NAAG, as described above for the human skin samples.
In order to determine if GCP activity in skin in vivo could be inhibited by peripheral administration of 2-PMPA, rats were administered vehicle (HEPES saline, pH 7, 50 mM) or 2-PMPA (1, 10 and 100 mg/kg, i.p.) using a dosing volume of 2 mL/kg. There were 10 animals in each group. Animals were sacrificed 1 hour after 2-PMPA or vehicle administration. […]

GCP [3] = assay: GCP activity in rat sciatic nerve after peripheral (i.p.) administration; assay type: in vivo; settings: 1 hour after administration
From the text: Sciatic nerve is the target tissue for GCP inhibitors in clinical trials for peripheral neuropathy and neuropathic pain. To obtain sciatic nerve samples, 1-2 cm incisions were made to the skin on top of the rat's mid-thigh so that sciatic nerve, gluteus superficialis muscle and biceps femoris muscle were exposed. The three were then separated and 5 mm of sciatic nerve was removed and analyzed as described above for the human skin and rat paw pad samples. GCP activity in sciatic nerve preparations from animals treated with 1, 10 and 100 mg/kg 2-PMPA was reduced to 92±11, 35±6 and 10±4% respectively compared to activity in sciatic nerve isolated from control animals (FIG. 3). Albeit to a different extent, GCP inhibition in sciatic nerve is attained at similar 2-PMPA doses (10 and 100 mg/kg i.p.) as in footpad tissue.

GCP [4] = assay: GCP enzyme activity assay with human skin biopsy pellet ([3H]-NAAG cleavage); assay type: biochemical; settings: 2-PMPA 1 μM added to assay mixture; [3H]-NAAG 70 nM, 37° C.
Description: Punch skin biopsies (3 mm) were obtained from the distal thigh of healthy human volunteers after anesthesia with 0.5 cc 2% lidocaine subcutaneous injection. Samples were placed in cold Tris buffer (pH 7.4) and GCP enzymatic activity was carried out within 1 hour of collection. The skin were homogenized, the homogenate was centrifuged and the pellet was used as source of GCP in the enzyme activity assay. Briefly, human skin biopsies were sonicated in Tris buffer (pH 7.4, 40 mM, 0.5 mL) for 1 minute in ice. The mixture was centrifuged for 2 minutes at 16000×g; the supernantant (containing endogenous […]) was removed and the resulting pellet (containing GCP) was reconstituted in 70 μL assay buffer (Tris pH 7.4, 40 mM containing 1 mM CoCl2) and used as source of GCP in the activity assay. Reconstituted pellet was then incubated with [^3H] […] The radioactivity in each vial corresponding to [^3H]-glutamate was determined via a Beckman LS-6000IC scintillation counter. Radioactivity values in dpm were converted to fmoles of glutamate using the relation 1 pCi/2.2 dpm and the specific activity of [^3H]-glutamate (same as that of [^3H]-NAAG: 1 fmole/50 pCi). As a result, if 16711 dpm [^3H]-glutamate were measured after incubating 10 mg tissue for 1 h, the normalized activity would be: 16711 dpm×(1 pCi/2.2 dpm)×(1 fmole/50 pCi)/10 mg tissue=15 fmole/h/mg tissue. […]

T1 sequence (P70627 whole entry): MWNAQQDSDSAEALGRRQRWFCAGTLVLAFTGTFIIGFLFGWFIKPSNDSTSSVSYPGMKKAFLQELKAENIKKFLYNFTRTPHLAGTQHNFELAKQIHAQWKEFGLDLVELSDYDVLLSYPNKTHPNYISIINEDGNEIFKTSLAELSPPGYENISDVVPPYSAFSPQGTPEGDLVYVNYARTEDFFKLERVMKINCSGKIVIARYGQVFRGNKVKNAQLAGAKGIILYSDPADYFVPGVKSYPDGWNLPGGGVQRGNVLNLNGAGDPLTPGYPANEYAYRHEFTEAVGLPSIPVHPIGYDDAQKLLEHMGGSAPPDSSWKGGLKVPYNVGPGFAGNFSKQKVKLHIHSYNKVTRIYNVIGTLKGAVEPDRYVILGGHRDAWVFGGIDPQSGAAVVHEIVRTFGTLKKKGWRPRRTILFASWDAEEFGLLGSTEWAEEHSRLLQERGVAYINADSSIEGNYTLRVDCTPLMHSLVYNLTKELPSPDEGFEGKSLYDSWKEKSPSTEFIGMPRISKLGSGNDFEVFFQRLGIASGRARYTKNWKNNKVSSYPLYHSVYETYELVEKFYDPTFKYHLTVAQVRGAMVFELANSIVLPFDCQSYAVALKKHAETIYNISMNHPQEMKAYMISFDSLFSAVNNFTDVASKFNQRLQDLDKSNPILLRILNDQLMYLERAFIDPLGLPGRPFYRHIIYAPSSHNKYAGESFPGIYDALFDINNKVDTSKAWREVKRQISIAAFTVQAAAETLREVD

**Q.** Which results are given for `O=C(O)CCC(CP(=O)(O)O)C(=O)O` (stereo not shown) [2-PMPA]?
**A.** 2-PMPA concentration in paw pads [1]: 38±5 μg/g tissue; GCP activity in paw pads compared to control animals (GCP [2]; 10 mg/kg i.p.): 60±11%; GCP activity in paw pads compared to control animals (GCP [2]; 100 mg/kg i.p.): 47±11%; GCP activity in sciatic nerve preparations compared to control animals (GCP [3]; 1 mg/kg i.p.): 92±11%; GCP activity in sciatic nerve preparations compared to control animals (GCP [3]; 10 mg/kg i.p.): 35±6%; GCP activity in sciatic nerve preparations compared to control animals (GCP [3]; 100 mg/kg i.p.): 10±4%; inhibition of GCP activity in human skin pellet preparations (GCP [4]): 90%
